Source: BindingDB's records for doi:10.1016/0960-894X(95)00351-S (1995)

Experiment: Inhibition of platelet aggregation using human platelet rich plasma (hPRP) assay (200microL, 2-3 x 10e 8 platelets/mL, n=1)

| Structure (SMILES) | IC50 [nM] |
| --- | --- |
| CC(C)[C@H]1NC(=O)c2cccc(c2)CNC(=O)[C@H](CC(=O)O)NC(=O)CNC(=O)[C@H](CCCNC(=N)N)N(C)C1=O [DMP-757] | 20 |
| CC(C)[C@H]1NC(=O)Cc2csc(n2)NC(=O)[C@H](CC(=O)O)NC(=O)CNC(=O)[C@H](CCCN=C(N)N)N(C)C1=O [[(4S,10S,13S)-10-(3-Guanidino-propyl)-13-isopropyl-11-methyl-3,6,9,12,15-pentaoxo-19-thia-2,5,8,11,14,20-hexaaza-bicyclo[15.2.1]icosa-1(20),17-dien-4-yl]-acetic acid] | 400 |
| CC(C)[C@H]1NC(=O)c2ccc([nH]2)CNC(=O)[C@H](CC(=O)O)NC(=O)CNC(=O)[C@H](CCCNC(=N)N)N(C)C1=O [[(5S,11S,14S)-11-(3-Guanidino-propyl)-14-isopropyl-12-methyl-4,7,10,13,16-pentaoxo-3,6,9,12,15,20-hexaaza-bicyclo[15.2.1]icosa-1(19),17-dien-5-yl]-acetic acid] | 100 |
| CC(C)[C@H]1NC(=O)c2cccc(n2)CNC(=O)[C@H](CC(=O)O)NC(=O)CNC(=O)[C@H](CCCN=C(N)N)N(C)C1=O [[(5S,11S,14S)-11-(3-Guanidino-propyl)-14-isopropyl-12-methyl-4,7,10,13,16-pentaoxo-3,6,9,12,15,21-hexaaza-bicyclo[15.3.1]henicosa-1(21),17,19-trien-5-yl]-acetic acid] | 2000 |

The remaining lines, values ahead:

| IC50 [nM] | Structure (SMILES) |
| --- | --- |
| 50 | CC(C)[C@H]1NC(=O)C2=CC=C(CNC(=O)[C@H](CC(=O)O)NC(=O)CNC(=O)[C@H](CCCNC(=N)N)N(C)C1=O)O2 [[(5S,11S,14S)-11-(3-Guanidino-propyl)-14-isopropyl-12-methyl-4,7,10,13,16-pentaoxo-20-oxa-3,6,9,12,15-pentaaza-bicyclo[15.2.1]icosa-1(19),17-dien-5-yl]-acetic acid] |
| 100 | CC(C)[C@H]1NC(=O)C2=CC=C(CNC(=O)[C@H](CC(=O)O)NC(=O)CNC(=O)[C@H](CCCN=C(N)N)N(C)C1=O)S2 [[(5S,11S,14S)-11-(3-Guanidino-propyl)-14-isopropyl-12-methyl-4,7,10,13,16-pentaoxo-20-thia-3,6,9,12,15-pentaaza-bicyclo[15.2.1]icosa-1(19),17-dien-5-yl]-acetic acid] |
| 20 | CC(C)[C@H]1NC(=O)c2cccc(c2F)CNC(=O)[C@H](CC(=O)O)NC(=O)CNC(=O)[C@H](CCCN=C(N)N)N(C)C1=O [[(5S,11S,14S)-21-Fluoro-11-(3-guanidino-propyl)-14-isopropyl-12-methyl-4,7,10,13,16-pentaoxo-3,6,9,12,15-pentaaza-bicyclo[15.3.1]henicosa-1(20),17(21),18-trien-5-yl]-acetic acid] |
| 200 | CC(C)[C@H]1NC(=O)/C=C\CCNC(=O)[C@H](CC(=O)O)NC(=O)CNC(=O)[C@H](CCCNC(=N)N)N(C)C1=O [[(Z)-(3R,9R,12R)-9-(3-Guanidino-propyl)-12-isopropyl-10-methyl-2,5,8,11,14-pentaoxo-1,4,7,10,13pentaaza-cyclooctadec-15-en-3-yl]-acetic acid] |
| 200 | CC(C)[C@H]1NC(=O)C/C=C\CNC(=O)[C@H](CC(=O)O)NC(=O)CNC(=O)[C@H](CCCN=C(N)N)N(C)C1=O [[(Z)-(3R,9R,12R)-9-(3-Guanidino-propyl)-12-isopropyl-10-methyl-2,5,8,11,14-pentaoxo-1,4,7,10,13pentaaza-cyclooctadec-16-en-3-yl]-acetic acid] |
